# Assay results as given in patent publication US20230041743A1, “1,8-NAPHTHYRIDIN-2-ONE COMPOUNDS FOR THE TREATMENT OF AUTOIMMUNE DISEASE” (Hoffmann-La Roche Inc., priority 2019, published 2023).
# Target: T1, human TLR8 (Homo sapiens, UniProt Q9NR97)
# T1 construct: host or cells: HEK293 (HEK-Blue hTLR8)
# T1 sequence (Q9NR97 27-1041): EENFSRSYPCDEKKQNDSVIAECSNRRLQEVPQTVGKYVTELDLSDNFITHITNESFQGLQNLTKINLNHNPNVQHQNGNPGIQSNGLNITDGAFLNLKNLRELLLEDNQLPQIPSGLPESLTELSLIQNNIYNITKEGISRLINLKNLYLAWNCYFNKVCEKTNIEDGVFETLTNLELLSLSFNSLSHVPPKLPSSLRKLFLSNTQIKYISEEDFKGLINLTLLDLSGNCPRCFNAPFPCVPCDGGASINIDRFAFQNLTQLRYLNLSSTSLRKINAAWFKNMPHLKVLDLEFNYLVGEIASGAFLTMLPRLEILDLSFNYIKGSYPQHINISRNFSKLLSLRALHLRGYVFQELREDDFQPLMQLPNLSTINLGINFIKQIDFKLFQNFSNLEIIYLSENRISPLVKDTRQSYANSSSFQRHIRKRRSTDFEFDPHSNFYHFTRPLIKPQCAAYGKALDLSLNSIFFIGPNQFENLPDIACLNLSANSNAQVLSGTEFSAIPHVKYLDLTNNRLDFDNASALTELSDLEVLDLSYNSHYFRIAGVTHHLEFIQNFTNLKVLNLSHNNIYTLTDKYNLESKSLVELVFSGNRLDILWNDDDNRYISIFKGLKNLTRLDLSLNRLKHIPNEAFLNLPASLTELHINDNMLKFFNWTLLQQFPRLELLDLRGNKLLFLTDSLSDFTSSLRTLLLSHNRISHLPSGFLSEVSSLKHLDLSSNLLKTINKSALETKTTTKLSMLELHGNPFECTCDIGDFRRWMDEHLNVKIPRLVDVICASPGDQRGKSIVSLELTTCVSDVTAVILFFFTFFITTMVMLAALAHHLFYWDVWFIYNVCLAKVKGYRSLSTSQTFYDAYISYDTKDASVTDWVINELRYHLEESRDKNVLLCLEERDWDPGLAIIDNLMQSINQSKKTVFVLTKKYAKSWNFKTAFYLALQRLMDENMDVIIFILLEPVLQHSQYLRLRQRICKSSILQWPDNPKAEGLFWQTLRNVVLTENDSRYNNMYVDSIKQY
# Assay: HEK293-Blue-hTLR-8 cells assay (SEAP reporter, R848 stimulation)
# Format: cell-based
# Conditions: HEK293-Blue-hTLR8 cells, R848 ligand, 20 hrs incubation; read-out: HEK/hTLR8 IC50
# Source text: HEK293-Blue-hTLR-8 Cells Assay:
# A stable HEK293-Blue-hTLR-8 cell line was purchased from InvivoGen (Cat. #: hkb-htlr8, San Diego, Calif., USA). These cells were originally designed for studying the stimulation of human TLR8 by monitoring the activation of NF-κB. A SEAP (secreted embryonic alkaline phosphatase) reporter gene was placed under the control of the IFN-β minimal promoter fused to five NF-κB and AP-1-binding sites. The SEAP was induced by activating NF-κB and AP-1 via stimulating HEK-Blue hTLR8 cells with TLR8 ligands. Therefore the reporter expression was declined by TLR8 antagonist under the stimulation of a ligand, such as R848, for incubation of 20 hrs. The cell culture supernatant SEAP reporter activity was determined using QUANTI-Blue™ kit (Cat. #: rep-qb1, Invivogen, San Diego, Ca, USA) at a wavelength of 640 nm, a detection medium that turns purple or blue in the presence of alkaline phosphatase.
# HEK293-Blue-hTLR8 cells were incubated at a density of 250,000-450,000 cells/mL in a volume of 170 μL in a 96-well plate in Dulbecco's Modified Eagle's medium (DMEM) containing 4.5 g/L glucose, 50 U/mL penicillin, […], […], 2 mM L-glutamine, 10% (v/v) heat-inactivated fetal bovine serum with addition of 20 μL test compound in a serial dilution in the presence of final DMSO at 1% and 10 μL of 60 uM R848 in above DMEM, perform incubation under 37° C. in a CO2 incubator for 20 hrs. Then 20 μL of the supernatant from each well was incubated with 180 μL Quanti-blue substrate solution at 37° C. for 2 hrs and the absorbance was read at 620-655 nm using a spectrophotometer. The signaling pathway that TLR8 activation leads to downstream NF-κB activation has been widely accepted, and therefore similar reporter assay was modified for evaluating TLR8 antagonist.
row,SMILES,IC50 [nM]
1,"C[C@@H]1CN(c2cc(=O)n(C)c3ncccc23)C[C@@H]2c3ccc(N4C[C@H]5C[C@@H]4CN5)cc3CN12 [Example 20, 4-[(4R,10bS)-8-[(1R,4R)-2,5-diazabicyclo[2.2.1]heptan-2-yl]-4-methyl-3,4,6,10b-tetrahydro-1H-pyrazino[2,1-a]isoindol-2-yl]-1-methyl-1,8-naphthyridin-2-one]",4.5
2,"C[C@@H]1CN(c2cc(=O)n(C)c3ncccc23)C[C@@H]2c3ccc(N4C[C@@H](N)[C@@H](F)C4)cc3CN12 [Example 7, 4-[(4R,10bS)-8-[(3R,4S)-3-amino-4-fluoro-pyrrolidin-1-yl]-4-methyl-3,4,6,10b-tetrahydro-1H-pyrazino[2,1-a]isoindol-2-yl]-1-methyl-1,8-naphthyridin-2-one]",5.9
3,"C[C@@H]1CN(c2cc(=O)n(C)c3ncccc23)C[C@@H]2c3ccc(N4CCOC5(CNC5)C4)cc3CN12 [Example 11, 4-[(4R,10bS)-4-methyl-8-(5-oxa-2,8-diazaspiro[3.5]nonan-8-yl)-3,4,6,10b-tetrahydro-1H-pyrazino[2,1-a]isoindol-2-yl]-1-methyl-1,8-naphthyridin-2-one]",24.1
4,"CO[C@@H]1CN(c2ccc3c(c2)CN2[C@H](C)CN(c4cc(=O)n(C)c5ncccc45)C[C@H]32)C[C@H]1N [Example 5, 4-[(4R,10bS)-8-[(3R,4R)-3-amino-4-methoxy-pyrrolidin-1-yl]-4-methyl-3,4,6,10b-tetrahydro-1H-pyrazino[2,1-a]isoindol-2-yl]-1-methyl-1,8-naphthyridin-2-one]",11.5
5,"C[C@@H]1CN(c2cc(=O)n(C)c3ncccc23)C[C@@H]2c3ccc(N4C[C@@H]5C[C@H]4CN5)cc3CN12 [Example 19, 4-[(4R,10bS)-8-[(1S,4S)-2,5-diazabicyclo[2.2.1]heptan-2-yl]-4-methyl-3,4,6,10b-tetrahydro-1H-pyrazino[2,1-a]isoindol-2-yl]-1-methyl-1,8-naphthyridin-2-one]",11.3
6,"C[C@@H]1CN(c2cc(=O)n(C)c3ncccc23)C[C@@H]2c3ccc(N4CC5(CNCCO5)C4)cc3CN12 [Example 3, 4-[(4R,10bS)-4-methyl-8-(5-oxa-2,8-diazaspiro[3.5]nonan-2-yl)-3,4,6,10b-tetrahydro-1H-pyrazino[2,1-a]isoindol-2-yl]-1-methyl-1,8-naphthyridin-2-one]",2.6
7,"C[C@@H]1CNCCN1c1ccc2c(c1)CN1[C@H](C)CN(c3cc(=O)n(C)c4ncccc34)C[C@H]21 [Example 17, 4-[(4R,10bS)-4-methyl-8-[(2R)-2-methylpiperazin-1-yl]-3,4,6,10b-tetrahydro-1H-pyrazino[2,1-a]isoindol-2-yl]-1-methyl-1,8-naphthyridin-2-one]",< 0.3
8,"COC[C@@H]1CNCCN1c1ccc2c(c1)CN1[C@H](C)CN(c3cc(=O)n(C)c4ncccc34)C[C@H]21 [Example 10, 4-[(4R,10bS)-8-[(2S)-2-(methoxymethyl)piperazin-1-yl]-4-methyl-3,4,6,10b-tetrahydro-1H-pyrazino[2,1-a]isoindol-2-yl]-1-methyl-1,8-naphthyridin-2-one]",4
9,"C[C@@H]1CN(c2cc(=O)n(C)c3ncccc23)C[C@@H]2c3ccc([C@H]4CC[C@@H](N5CCOCC5)CC4)cc3CN12 [Example 27B, 4-[(4R,10bS)-4-methyl-8-(cis-4-morpholinocyclohexyl)-3,4,6,10b-tetrahydro-1H-pyrazino[2,1-a]isoindol-2-yl]-1-methyl-1,8-naphthyridin-2-one]",10
10,"C[C@@H]1CN(c2cc(=O)n(C)c3ncccc23)C[C@@H]2c3ccc([C@H]4CC[C@H](N5CCOCC5)CC4)cc3CN12 [Example 27A, 4-[(4R,10bS)-4-methyl-8-(trans-4-morpholinocyclohexyl)-3,4,6,10b-tetrahydro-1H-pyrazino[2,1-a]isoindol-2-yl]-1-methyl-1,8-naphthyridin-2-one]",2
11,"C[C@@H]1CN(c2cc(=O)n(C)c3ncccc23)C[C@@H]2c3ccc(N4C[C@H]5NCCO[C@@H]5C4)cc3CN12 [Example 6, 4-[(4R,10bS)-8-[(4aR,7aR)-3,4,4a,5,7,7a-hexahydro-2H-pyrrolo[3,4-b][1,4]oxazin-6-yl]-4-methyl-3,4,6,10b-tetrahydro-1H-pyrazino[2,1-a]isoindol-2-yl]-1-methyl-1,8-naphthyridin-2-one]",4.9
12,"CCn1c(=O)cc(N2C[C@@H](C)N3Cc4cc(N5C[C@@H](N)[C@H](OC)C5)ccc4[C@H]3C2)c2cccnc21 [Example 29, 4-[(4R,10bS)-8-[(3R,4R)-3-amino-4-methoxy-pyrrolidin-1-yl]-4-methyl-3,4,6,10b-tetrahydro-1H-pyrazino[2,1-a]isoindol-2-yl]-1-ethyl-1,8-naphthyridin-2-one]",26.3

# The next lines start with the values.
row,IC50 [nM],SMILES
1,1,"C[C@@H]1CN(c2ccc3c(c2)CN2[C@H](C)CN(c4cc(=O)n(C)c5ncccc45)C[C@H]32)CCN1 [Example 14, 4-[(4R,10bS)-4-methyl-8-[(3R)-3-methylpiperazin-1-yl]-3,4,6,10b-tetrahydro-1H-pyrazino[2,1-a]isoindol-2-yl]-1-methyl-1,8-naphthyridin-2-one]"
2,2.5,"C[C@@H]1CN(c2cc(=O)n(C)c3ncccc23)C[C@@H]2c3ccc(N4CCC(C)(N)CC4)cc3CN12 [Example 18, 4-[(4R,10bS)-8-(4-amino-4-methyl-1-piperidyl)-4-methyl-3,4,6,10b-tetrahydro-1H-pyrazino[2,1-a]isoindol-2-yl]-1-methyl-1,8-naphthyridin-2-one]"
3,7.2,"C[C@@H]1CN(c2cc(=O)n(C)c3ncccc23)C[C@@H]2c3ccc(N4CCC[C@](C)(N)C4)cc3CN12 [Example 15, 4-[(4R,10bS)-8-[(3S)-3-amino-3-methyl-1-piperidyl]-4-methyl-3,4,6,10b-tetrahydro-1H-pyrazino[2,1-a]isoindol-2-yl]-1-methyl-1,8-naphthyridin-2-one]"
4,4.9,"C[C@@H]1CN(c2cc(=O)n(C)c3ncccc23)C[C@@H]2c3ccc(N4CCOC[C@H](N)C4)cc3CN12 [Example 22, 4-[(4R,10bS)-8-[(6R)-6-amino-1,4-oxazepan-4-yl]-4-methyl-3,4,6,10b-tetrahydro-1H-pyrazino[2,1-a]isoindol-2-yl]-1-methyl-1,8-naphthyridin-2-one]"
5,2.9,"C[C@@H]1CN(c2cc(=O)n(C)c3ncccc23)C[C@@H]2c3ccc(N4CC[C@@](C)(N)C4)cc3CN12 [Example 4, 4-[(4R,10bS)-8-[(3R)-3-amino-3-methyl-pyrrolidin-1-yl]-4-methyl-3,4,6,10b-tetrahydro-1H-pyrazino[2,1-a]isoindol-2-yl]-1-methyl-1,8-naphthyridin-2-one]"
6,7.3,"CO[C@H]1CN(c2ccc3c(c2)CN2[C@H](C)CN(c4cc(=O)n(C)c5ncccc45)C[C@H]32)CC[C@@H]1N [Example 8, 4-[(4R,10bS)-8-[(3S,4S)-4-amino-3-methoxy-1-piperidyl]-4-methyl-3,4,6,10b-tetrahydro-1H-pyrazino[2,1-a]isoindol-2-yl]-1-methyl-1,8-naphthyridin-2-one]"
7,2.9,"C[C@@H]1CN(c2cc(=O)n(C)c3ncccc23)C[C@@H]2c3ccc(N4CC(C)(N)C4)cc3CN12 [Example 1, 4-[(4R,10bS)-8-(3-amino-3-methyl-azetidin-1-yl)-4-methyl-3,4,6,10b-tetrahydro-1H-pyrazino[2,1-a]isoindol-2-yl]-1-methyl-1,8-naphthyridin-2-one]"
